Data reported in patent US20130190407A1, “CALCIUM RECEPTOR-ACTIVE MOLECULES” (NPS Pharmaceuticals, Inc., priority 1991, published 2013).
pEC50: −log10 of the molar value.

Assays:
Format in all cases: cell-based
[1] = target: T1, osteoclast calcium receptor (Rattus norvegicus, UniProt P48442); assay: [Ca2+]i (indo-1) in single rat osteoclasts; conditions: Table 6; rat osteoclasts, indo-1
T1 sequence (P48442 20-1079): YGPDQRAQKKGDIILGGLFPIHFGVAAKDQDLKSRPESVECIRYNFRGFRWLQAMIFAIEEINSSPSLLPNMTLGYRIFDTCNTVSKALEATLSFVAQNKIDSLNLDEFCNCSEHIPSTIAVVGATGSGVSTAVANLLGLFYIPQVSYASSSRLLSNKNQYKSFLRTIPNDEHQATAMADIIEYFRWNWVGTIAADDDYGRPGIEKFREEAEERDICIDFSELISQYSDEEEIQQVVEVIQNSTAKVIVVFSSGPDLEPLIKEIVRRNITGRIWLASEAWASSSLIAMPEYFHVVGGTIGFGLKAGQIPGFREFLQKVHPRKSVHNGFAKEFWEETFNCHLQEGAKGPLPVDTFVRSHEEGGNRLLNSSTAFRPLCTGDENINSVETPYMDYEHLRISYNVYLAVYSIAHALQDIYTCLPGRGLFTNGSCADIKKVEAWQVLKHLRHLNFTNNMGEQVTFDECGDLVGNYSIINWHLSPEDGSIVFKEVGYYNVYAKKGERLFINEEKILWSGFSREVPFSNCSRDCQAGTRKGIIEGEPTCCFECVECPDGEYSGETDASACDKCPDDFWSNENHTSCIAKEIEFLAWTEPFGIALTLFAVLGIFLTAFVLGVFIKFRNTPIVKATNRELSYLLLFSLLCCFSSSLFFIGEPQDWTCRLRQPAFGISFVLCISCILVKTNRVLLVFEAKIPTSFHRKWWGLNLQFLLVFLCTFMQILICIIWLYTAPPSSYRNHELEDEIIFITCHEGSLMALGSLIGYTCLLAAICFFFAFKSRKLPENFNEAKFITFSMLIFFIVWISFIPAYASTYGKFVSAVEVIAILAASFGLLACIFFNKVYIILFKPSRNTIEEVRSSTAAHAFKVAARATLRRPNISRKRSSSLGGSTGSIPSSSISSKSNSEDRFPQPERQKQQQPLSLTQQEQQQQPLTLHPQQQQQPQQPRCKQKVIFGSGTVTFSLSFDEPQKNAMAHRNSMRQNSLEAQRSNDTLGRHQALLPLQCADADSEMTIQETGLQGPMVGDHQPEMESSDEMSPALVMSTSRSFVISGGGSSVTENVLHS

[2] = target: T2, bovine parathyroid cell calcium receptor (Bos taurus, UniProt P35384); assay: Cl- current in Xenopus oocytes injected with BoPCaR 1; conditions: 1 mM extracellular Ca2+
T2 construct: isolation of a single clone (BoPCaR 1) with a cDNA insert of 5.3 kb; expressed in transfected cells
T2 sequence (P35384 20-1085): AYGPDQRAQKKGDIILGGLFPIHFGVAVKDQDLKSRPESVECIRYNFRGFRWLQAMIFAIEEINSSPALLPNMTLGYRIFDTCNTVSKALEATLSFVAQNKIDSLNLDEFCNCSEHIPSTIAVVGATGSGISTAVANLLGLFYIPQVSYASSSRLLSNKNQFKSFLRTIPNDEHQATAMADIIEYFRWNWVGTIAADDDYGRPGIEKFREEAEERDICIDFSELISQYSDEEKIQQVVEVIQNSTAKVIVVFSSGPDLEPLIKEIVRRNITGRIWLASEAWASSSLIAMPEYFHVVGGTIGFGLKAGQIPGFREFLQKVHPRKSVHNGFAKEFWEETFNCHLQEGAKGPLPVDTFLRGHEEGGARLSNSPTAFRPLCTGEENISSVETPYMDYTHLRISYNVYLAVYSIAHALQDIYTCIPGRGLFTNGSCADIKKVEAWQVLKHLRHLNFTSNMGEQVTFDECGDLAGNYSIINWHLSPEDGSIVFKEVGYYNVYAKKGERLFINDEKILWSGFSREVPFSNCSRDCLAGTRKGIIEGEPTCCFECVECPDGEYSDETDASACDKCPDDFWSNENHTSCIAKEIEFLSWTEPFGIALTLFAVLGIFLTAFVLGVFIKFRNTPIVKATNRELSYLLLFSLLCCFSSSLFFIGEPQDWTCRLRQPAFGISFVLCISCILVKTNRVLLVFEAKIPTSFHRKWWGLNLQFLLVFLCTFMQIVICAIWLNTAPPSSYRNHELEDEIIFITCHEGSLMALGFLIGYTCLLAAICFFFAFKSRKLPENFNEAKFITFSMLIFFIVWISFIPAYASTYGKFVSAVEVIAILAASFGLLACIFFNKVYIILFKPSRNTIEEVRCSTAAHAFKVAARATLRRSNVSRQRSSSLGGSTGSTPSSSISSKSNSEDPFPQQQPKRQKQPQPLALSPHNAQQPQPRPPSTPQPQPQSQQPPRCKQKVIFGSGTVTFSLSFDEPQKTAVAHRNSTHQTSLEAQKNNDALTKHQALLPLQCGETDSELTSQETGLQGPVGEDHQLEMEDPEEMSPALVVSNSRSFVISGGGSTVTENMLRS
Protocol: Several pharmacological and biochemical criteria were used to identify this clone as encoding a bona fide bovine parathyroid Ca^2+ receptor. […] These responses increased markedly over a period of one to four days after injection of the eggs with cRNA prepared from the BoPCaR 1 cDNA. Furthermore, the ranges of the concentrations of the two cations eliciting this response were very similar to those shown previously to act on bovine parathyroid cells in vitro.
Xenopus oocytes were injected with BoPCaR 1, the 5.3 Kb cDNA encoding a bovine parathyroid cell calcium receptor as described in Example 25. After two to three days, Cl^− currents were examined in the oocytes using a two-electrode voltage clamp.
Xenopus oocytes were injected with BoPCaR 1 as described in Example 25. After two to three days, Cl^− currents were examined in the oocytes using two electrode voltage clamp.

[3] = target: T3, human parathyroid cell calcium receptor (Homo sapiens, UniProt P41180, E1011Q/Q926R); assay: Cl- current in Xenopus oocytes injected with pHuPCaR 5.2; conditions: 3 to 30 μM; 0.3 mM extracellular Ca2+
T3 construct: appear to be full-length clones corresponding to the 5 Kb mRNA; expressed in transfected cells; host or cells: Xenopus laevis oocytes injected with pHuPCaR 5.2
T3 sequence (P41180 20-1088 isoform P41180-2 Q936R/E1021Q): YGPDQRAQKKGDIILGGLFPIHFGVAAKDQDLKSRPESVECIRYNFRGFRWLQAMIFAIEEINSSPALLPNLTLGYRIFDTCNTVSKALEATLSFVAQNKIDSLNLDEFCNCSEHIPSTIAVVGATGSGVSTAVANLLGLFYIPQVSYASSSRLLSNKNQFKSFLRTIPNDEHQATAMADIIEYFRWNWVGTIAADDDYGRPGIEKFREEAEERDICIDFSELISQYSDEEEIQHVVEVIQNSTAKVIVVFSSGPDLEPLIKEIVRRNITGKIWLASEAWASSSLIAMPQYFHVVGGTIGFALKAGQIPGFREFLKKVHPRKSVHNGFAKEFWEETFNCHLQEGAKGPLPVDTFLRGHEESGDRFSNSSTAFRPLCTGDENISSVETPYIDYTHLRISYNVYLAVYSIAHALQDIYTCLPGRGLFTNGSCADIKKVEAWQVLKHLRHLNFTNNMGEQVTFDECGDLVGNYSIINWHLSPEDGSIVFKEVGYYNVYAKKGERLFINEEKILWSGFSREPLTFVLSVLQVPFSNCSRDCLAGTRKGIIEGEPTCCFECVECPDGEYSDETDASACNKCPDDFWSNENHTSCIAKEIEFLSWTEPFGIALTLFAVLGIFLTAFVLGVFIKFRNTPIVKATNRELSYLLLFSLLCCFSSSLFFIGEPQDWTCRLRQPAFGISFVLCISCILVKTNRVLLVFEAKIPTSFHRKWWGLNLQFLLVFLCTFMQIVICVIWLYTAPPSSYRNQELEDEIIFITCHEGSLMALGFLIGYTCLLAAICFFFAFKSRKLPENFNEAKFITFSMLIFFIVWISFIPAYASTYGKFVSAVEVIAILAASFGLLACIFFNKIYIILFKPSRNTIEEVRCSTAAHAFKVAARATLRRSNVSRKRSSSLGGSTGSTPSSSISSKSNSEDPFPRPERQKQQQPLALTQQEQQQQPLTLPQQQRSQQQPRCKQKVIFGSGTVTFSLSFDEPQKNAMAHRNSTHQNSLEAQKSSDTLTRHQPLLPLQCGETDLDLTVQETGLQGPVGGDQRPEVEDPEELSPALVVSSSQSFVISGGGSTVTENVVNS
Protocol: Xenopus oocytes were injected with pHuPCaR 5.2, the 5.2 Kb cDNA encoding a parathyroid cell calcium receptor derived from a human parathyroid cell adenoma. (See Example 27.) After two to three days, Cl^− currents were measured in the oocytes using a two-electrode voltage clamp.

[4] = system: Bovine parathyroid cells
Protocol: This section describes measuring cyclic AMP levels. Cells were incubated as above for PTH secretion studies and at the end of the incubation, a 0.15-ml sample was taken and transferred to 0.85 ml of hot (70° C.) water and heated at this temperature for 5-10 minutes. The tubes were subsequently frozen and thawed several times and the cellular debris sedimented by centrifugation. Portions of the supernatant were acetylated and cyclic AMP concentrations determined by radioimmunoassay.
Bovine parathyroid cells were cultured for 16 hours with or without 100 ng/ml pertussis toxin. […] Each value is the mean±SEM of three experiments.

[5] = system: Bovine parathyroid cells; assay: PTH secretion from bovine parathyroid cells; conditions: concentrations that mobilize intracellular Ca2+
Protocol: PTH secretion was measured by first suspending cells in PCB containing 0.5 mM CaCl2 and 0.1% BSA.
Counting of samples and data reduction were performed on a Packard Cobra 5005 gamma counter.

[6] = system: Bovine parathyroid cells; assay: Inositol phosphate formation in bovine parathyroid cells
Protocol: After 30 seconds, the reaction was terminated by the addition of CHCl3:MeOH:HCl and IP1 (circles) and IP3 (triangles) separated by anion exchange chromatography. Each point is the mean of 2 experiments, each performed in triplicate.
This section describes procedures measuring inositol phosphate formation. Membrane phospholipids were labeled by incubating parathyroid cells with 4 μCi/ml ^3H-myo-inositol for 20-24 hours. Cells were then washed and resuspended in PCB containing 0.5 mM CaCl2 and 0.1% BSA. Incubations were performed in microfuge tubes in the absence or presence of various concentrations of organic polycation for different times. Reactions were terminated by the addition of 1 ml chloroform-methanol-12 N HCl (200:100:1; v/v/v). Aqueous phytic acid hydrolysate (200 μl; 25 μg phosphate/tube). The tubes were centrifuged and 600 μl of the aqueous phase was diluted into 10 ml water.
Inositol phosphates were separated by ion-exchange chromatography using AG1-X8 in either the chloride- or formate-form. When only IP3 levels were to be determined, the chloride-form was used, whereas the formate form was used to resolve the major inositol phosphates (IP3, IP2, and IP1). […] The last eluate was diluted and counted. […] The eluted samples from the formate columns were rotary evaporated, the residues brought up in cocktail, and counted.

| Molecule | pEC50 [1] | Cl- current [2] | Cl- current [3] | cyclic AMP (% of control), control [4] | PTH secretion [5] | formation of IP3 [6] |
| --- | --- | --- | --- | --- | --- | --- |
| NCCCNCCCCNCCCNCCCNCCCNC(=O)Cc1c[nH]c2ccccc12 [NPS 019] | < 3.52 | oscillatory increases in the Cl^− current | evoked increases in the Cl^− current |  |  |  |
| protamine |  |  |  | 20 ± 4 % of control | inhibited PTH secretion to the same extent as extracellular Ca^2+ | rapid (within 30 seconds) increase in the formation of IP3 |
